The source made the active and inactive calls. No rule for the calls is given here.
System: CCRIS mutagenicity, Ames/micronucleus/aberration tests
Experiment: CCRIS mutagenicity studies
[1] = Test System: AMES SALMONELLA TYPHIMURIUM, Strain/Indicator: TA98, Metabolic Activation: NONE, Method: STANDARD PLATE
[2] = Test System: AMES SALMONELLA TYPHIMURIUM, Strain/Indicator: TA98, Metabolic Activation: RAT, LIVER, S-9, AROCLOR 1254, Method: STANDARD PLATE
[3] = Test System: AMES SALMONELLA TYPHIMURIUM, Strain/Indicator: TA100, Metabolic Activation: NONE, Method: PREINCUBATION
[4] = Test System: AMES SALMONELLA TYPHIMURIUM, Strain/Indicator: TA100, Metabolic Activation: NONE, Method: STANDARD PLATE
[5] = Test System: AMES SALMONELLA TYPHIMURIUM, Strain/Indicator: TA100, Metabolic Activation: RAT, LIVER, S-9, AROCLOR 1254, Method: STANDARD PLATE

Measured: mutagenic call

O=S1OCC2C(CO1)C1(Cl)C(Cl)=C(Cl)C2(Cl)C1(Cl)Cl (stereo unspecified)
active: End Point: IN VITRO CHROMOSOMAL ABERRATIONS, Test System: HUMAN PERIPHERAL BLOOD LYMPHOCYTES, Metabolic Activation: NONE active; positive (structural changes) | End Point: In vitro chromosomal aberrations, Test System: Human lymphocytes, Metabolic Activation: None active; positive (structural changes and ploidy) | Test System: AMES SALMONELLA TYPHIMURIUM, Strain/Indicator: TA97A, Metabolic Activation: NONE, Method: PREINCUBATION active; positive | Test System: AMES SALMONELLA TYPHIMURIUM, Strain/Indicator: TA97A, Metabolic Activation: RAT, LIVER, S-9, PHENOBARBITAL, Method: PREINCUBATION active; positive | Test System: ESCHERICHIA COLI, Strain/Indicator: AB1157, Metabolic Activation: NONE, Method: PREINCUBATION active; positive
inactive: End Point: In vitro chromosomal aberrations, Test System: Human (one male) lymphocytes, Metabolic Activation: None inactive; negative. (200 ug/ml was toxic to the cells.) | End Point: In vitro chromosomal aberrations, Test System: Human (one male) lymphocytes, Metabolic Activation: Rat, Liver, S-9 inactive; negative. (200 ug/ml was toxic to the cells.) | Test System: AMES SALMONELLA TYPHIMURIUM, Strain/Indicator: TA97A, Metabolic Activation: NONE, Method: STANDARD PLATE inactive; negative | Test System: AMES SALMONELLA TYPHIMURIUM, Strain/Indicator: TA97A, Metabolic Activation: RAT, CECAL CELL FREE EXTRACT, Method: STANDARD PLATE inactive; negative | Test System: AMES SALMONELLA TYPHIMURIUM, Strain/Indicator: TA97A, Metabolic Activation: RAT, LIVER, S-9, AROCLOR 1254, Method: STANDARD PLATE inactive; negative | Test System: AMES SALMONELLA TYPHIMURIUM, Strain/Indicator: TA97A, Metabolic Activation: RAT, LIVER, S-9, PHENOBARBITAL, Method: STANDARD PLATE inactive; negative | Test System: AMES SALMONELLA TYPHIMURIUM, Strain/Indicator: TA98, Metabolic Activation: HAMSTER, LIVER, S-9, AROCLOR 1254 (10%), Method: PREINCUBATION inactive; negative | Test System: AMES SALMONELLA TYPHIMURIUM, Strain/Indicator: TA98, Metabolic Activation: NONE, Method: PREINCUBATION inactive; negative | [1] inactive; negative | Test System: AMES SALMONELLA TYPHIMURIUM, Strain/Indicator: TA98, Metabolic Activation: RAT, CECAL CELL FREE EXTRACT, Method: STANDARD PLATE inactive; negative | Test System: AMES SALMONELLA TYPHIMURIUM, Strain/Indicator: TA98, Metabolic Activation: RAT, LIVER, S-9, AROCLOR 1254 (10%), Method: PREINCUBATION inactive; negative | [2] inactive; negative | Test System: AMES SALMONELLA TYPHIMURIUM, Strain/Indicator: TA98, Metabolic Activation: RAT, LIVER, S-9, PHENOBARBITAL, Method: PREINCUBATION inactive; negative | Test System: AMES SALMONELLA TYPHIMURIUM, Strain/Indicator: TA98, Metabolic Activation: RAT, LIVER, S-9, PHENOBARBITAL, Method: STANDARD PLATE inactive; negative | Test System: AMES SALMONELLA TYPHIMURIUM, Strain/Indicator: TA100, Metabolic Activation: HAMSTER, LIVER, S-9, AROCLOR 1254 (10%), Method: PREINCUBATION inactive; negative | [3] inactive; negative | [4] inactive; negative | Test System: AMES SALMONELLA TYPHIMURIUM, Strain/Indicator: TA100, Metabolic Activation: RAT, CECAL CELL FREE EXTRACT, Method: STANDARD PLATE inactive; negative | Test System: AMES SALMONELLA TYPHIMURIUM, Strain/Indicator: TA100, Metabolic Activation: RAT, LIVER, S-9, AROCLOR 1254 (10%), Method: PREINCUBATION inactive; negative | [5] inactive; negative | Test System: AMES SALMONELLA TYPHIMURIUM, Strain/Indicator: TA100, Metabolic Activation: RAT, LIVER, S-9, PHENOBARBITAL, Method: PREINCUBATION inactive; negative | Test System: AMES SALMONELLA TYPHIMURIUM, Strain/Indicator: TA100, Metabolic Activation: RAT, LIVER, S-9, PHENOBARBITAL, Method: STANDARD PLATE inactive; negative | Test System: AMES SALMONELLA TYPHIMURIUM, Strain/Indicator: TA102, Metabolic Activation: NONE, Method: STANDARD PLATE inactive; negative | Test System: AMES SALMONELLA TYPHIMURIUM, Strain/Indicator: TA102, Metabolic Activation: RAT, LIVER, S-9, PHENOBARBITAL, Method: PREINCUBATION inactive; negative | Test System: AMES SALMONELLA TYPHIMURIUM, Strain/Indicator: TA102, Metabolic Activation: RAT, LIVER, S-9, PHENOBARBITAL, Method: STANDARD PLATE inactive; negative | Test System: AMES SALMONELLA TYPHIMURIUM, Strain/Indicator: TA1535, Metabolic Activation: HAMSTER, LIVER, S-9, AROCLOR 1254 (10%), Method: PREINCUBATION inactive; negative | Test System: AMES SALMONELLA TYPHIMURIUM, Strain/Indicator: TA1535, Metabolic Activation: NONE, Method: PREINCUBATION inactive; negative | Test System: AMES SALMONELLA TYPHIMURIUM, Strain/Indicator: TA1535, Metabolic Activation: RAT, LIVER, S-9, AROCLOR 1254 (10%), Method: PREINCUBATION inactive; negative | Test System: AMES SALMONELLA TYPHIMURIUM, Strain/Indicator: TA1537, Metabolic Activation: HAMSTER, LIVER, S-9, AROCLOR 1254 (10%), Method: PREINCUBATION inactive; negative | Test System: AMES SALMONELLA TYPHIMURIUM, Strain/Indicator: TA1537, Metabolic Activation: NONE, Method: PREINCUBATION inactive; negative | Test System: AMES SALMONELLA TYPHIMURIUM, Strain/Indicator: TA1537, Metabolic Activation: RAT, LIVER, S-9, AROCLOR 1254 (10%), Method: PREINCUBATION inactive; negative | Test System: UDS Rat hepatocytes, Strain/Indicator: Primary hepatocytes. Thy incorp, Metabolic Activation: None, Method: Autoradiography inactive; negative. (toxic at 51 ug/ml)

O=C/C=C/c1ccc([N+](=O)[O-])cc1
inactive: Test System: AMES SALMONELLA TYPHIMURIUM, Strain/Indicator: TA100(NR), Metabolic Activation: NONE, Method: PREINCUBATION inactive; negative | Test System: MOUSE LYMPHOMA, Strain/Indicator: L5178Y (TK+/TK-), Metabolic Activation: RAT, LIVER, S-9, AROCLOR 1254, Method: SUSPENSION/PLATE inactive; negative. reevaluation of results: negative
active: Test System: AMES SALMONELLA TYPHIMURIUM, Strain/Indicator: TA98, Metabolic Activation: HAMSTER, LIVER, S-9, AROCLOR 1254, Method: STANDARD PLATE active; positive | [1] active; positive | [2] active; positive | Test System: AMES SALMONELLA TYPHIMURIUM, Strain/Indicator: TA100(1,8-DNP6), Metabolic Activation: NONE, Method: PREINCUBATION active; positive | Test System: AMES SALMONELLA TYPHIMURIUM, Strain/Indicator: TA100(1,8-DNP6), Metabolic Activation: RAT, LIVER, S-9, AROCLOR 1254, Method: PREINCUBATION active; positive | Test System: AMES SALMONELLA TYPHIMURIUM, Strain/Indicator: TA100(NR), Metabolic Activation: RAT, LIVER, S-9, AROCLOR 1254, Method: PREINCUBATION active; positive | Test System: AMES SALMONELLA TYPHIMURIUM, Strain/Indicator: TA100, Metabolic Activation: HAMSTER, LIVER, S-9, AROCLOR 1254, Method: STANDARD PLATE active; positive | [3] active; positive | [4] active; positive | Test System: AMES SALMONELLA TYPHIMURIUM, Strain/Indicator: TA100, Metabolic Activation: RAT, LIVER, S-9, AROCLOR 1254, Method: PREINCUBATION active; positive | [5] active; positive | Test System: MOUSE LYMPHOMA, Strain/Indicator: L5178Y (TK+/TK-), Metabolic Activation: NONE, Method: SUSPENSION/PLATE active; positive. reevaluation of results: positive
